Target: T1, human LXRβ (Homo sapiens, UniProt P55055)
T1 construct: expressed in transfected cells; host or cells: HEK293 cells (ATCC CRL-1573), transient transfection with pFA-hLXRβ/GAL4 and pUAS
T1 sequence (P55055 222-460 limits assumed): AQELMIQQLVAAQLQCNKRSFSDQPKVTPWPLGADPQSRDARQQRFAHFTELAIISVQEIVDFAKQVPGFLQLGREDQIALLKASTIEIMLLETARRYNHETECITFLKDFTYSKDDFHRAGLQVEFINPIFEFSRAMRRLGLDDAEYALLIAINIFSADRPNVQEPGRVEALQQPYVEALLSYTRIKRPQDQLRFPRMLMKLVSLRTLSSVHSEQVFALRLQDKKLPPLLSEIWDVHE
Test: Assay for Transcriptional Activity of LXRβ (GAL4-hLXRβ LBD luciferase reporter, transient transfection)
Type: cell-based
Settings: HEK293 cells transfected with pFA-hLXRβ/GAL4 and pUAS, 24 hours; for Emax: fold value in comparison with the control (DMSO-treated group); for EC50: increase of transcriptional activity of LXRβ, average of three independent tests
Method in brief: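 HEK293 cells transiently co-transfected with GAL4-hLXRβ LBD and 5×GAL4-UAS luciferase reporter, treated 24 h at 37 °C with compounds over 9 points (0.01–50 μM, half-log). Luminescence read after lysis; EC50 from four-parameter fit, mean of three independent tests, with a known LXR agonist as positive control.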

Row | Emax | EC50 | SMILES
1 | 81 fold | 617 nM | COc1ccc(-c2ccc(C3CC(C(O)(C(F)(F)F)C(F)(F)F)=NN3c3ccccc3Cl)c(F)c2)cn1 (centres unmarked) [Example 343, 1-(2-chloro-phenyl)-5-[2-fluoro-4-(6-methoxy-pyridin-3-yl)-phenyl]-3-[di-(trifluoromethyl)-hydroxy-methyl]-4,5-dihydro-1H-pyrazole]
2 | 104 fold | 521 nM | O=S(=O)(C1CC1)N1CC=C(c2ccc(C3CC(C(O)(C(F)(F)F)C(F)(F)F)=NN3c3ccccc3Cl)cc2)CC1 (centres unmarked) [Example 304, 1-(2-chloro-phenyl)-5-[4-(1-cyclopropanesulfonyl-1,2,3,6-tetrahydropyridin-4-yl)-phenyl]-3-[di-(trifluoromethyl)-hydroxy-methyl]-4,5-dihydro-1H-pyrazole]
3 | 25 fold | 965 nM | CS(=O)(=O)c1ccc(-c2cccc(N3N=C(C(O)(C(F)(F)F)C(F)(F)F)CC3c3ccccc3Cl)c2)cn1 (centres unmarked) [Example 435, 5-(2-chloro-phenyl)-1-{3-[6-(methylsulfonyl)-pyridin-3-yl]-phenyl}-3-[di-(trifluoromethyl)-hydroxy-methyl]-4,5-dihydro-1H-pyrazole]
4 | 55 fold | 6310 nM | CSc1ccc(-c2cccc(C3CC(C(F)(F)C(F)(F)F)=NN3c3ccccc3Cl)c2)cc1 (centres unmarked) [Example 105, 1-(2-chloro-phenyl)-5-(4′-methylsulfanyl-biphenyl-3-yl)-3-pentafluoroethyl-4,5-dihydro-1H-pyrazole]
5 | 51 fold | 729 nM | OC(C1=NN(c2ccccc2Cl)C(c2ccc(-c3ccc(F)c(Cl)c3)cc2)C1)(C(F)(F)F)C(F)(F)F (centres unmarked) [Example 256, 5-(3′-chloro-4′-fluoro-biphenyl-4-yl)-1-(2-chloro-phenyl)-3-[di-(trifluoromethyl)-hydroxy-methyl]-4,5-dihydro-1H-pyrazole]
6 | 81 fold | 2840 nM | O=S(=O)(C1CC1)N1CCN(c2ccnc(C3CC(C(F)(F)C(F)(F)F)=NN3c3ccc(F)cc3F)c2)CC1 (centres unmarked) [Example 184, 1-(2,4-difluoro-phenyl)-5-[4-(4-cyclopropanesulfonyl-piperazin-1-yl)-pyridin-2-yl]-3-pentafluoroethyl-4,5-dihydro-1H-pyrazole]
7 | 103 fold | 593 nM | C[S+]([O-])c1ccc(-c2cccc(C3CC(C(F)(F)C(F)(F)F)=NN3c3ccc(Cl)cc3Cl)c2)cc1 (centres unmarked) [Example 42, 1-(2,4-dichloro-phenyl)-5-(4′-methanesulfinyl-biphenyl-3-yl)-3-pentafluoroethyl-4,5-dihydro-1H-pyrazole]
8 | 43 fold | 2480 nM | OC(C1=NN(c2ccccc2Cl)C(c2ccc(-c3cccc(OC(F)(F)F)c3)cc2)C1)(C(F)(F)F)C(F)(F)F (centres unmarked) [Example 248, 1-(2-chloro-phenyl)-5-[3′-(trifluoromethoxy)-biphenyl-4-yl]-3-[di-(trifluoromethyl)-hydroxy-methyl]-4,5-dihydro-1H-pyrazole]
9 | 25 fold | 2500 nM | N#Cc1ccc(-c2cccc(C3CC(C(F)(F)C(F)(F)F)=NN3c3ccc(F)cc3F)c2)cn1 (centres unmarked) [Example 78, 5-[3-(2-cyano-pyridin-5-yl)-phenyl]-1-(2,4-difluoro-phenyl)-3-pentafluoroethyl-4,5-dihydro-1H-pyrazole]
10 | 47 fold | 3350 nM | CC(=O)c1ccccc1-c1ccc(C2CC(C(O)(C(F)(F)F)C(F)(F)F)=NN2c2ccccc2Cl)cc1 (centres unmarked) [Example 241, 5-(2′-acetyl-biphenyl-4-yl)-1-(2-chloro-phenyl)-3-[di-(trifluoromethyl)-hydroxy-methyl]-4,5-dihydro-1H-pyrazole]
11 | 92 fold | 630 nM | O=S(=O)(C1CC1)N1CC=C(c2ccc(C3CC(C(O)(C(F)(F)F)C(F)(F)F)=NN3c3ccccc3Cl)cn2)CC1 (centres unmarked) [Example 359, 1-(2-chloro-phenyl)-5-[6-(1-cyclopropanesulfonyl-1,2,3,6-tetrahydropyridin-4-yl)-pyridin-3-yl]-3-[di-(trifluoromethyl)-hydroxy-methyl]-4,5-dihydro-1H-pyrazole]
12 | 17 fold | 1660 nM | CC(C)(O)C(=O)N1CCN(c2ccc(C3CC(C(O)(C(F)(F)F)C(F)(F)F)=NN3c3ccccc3Cl)cc2)CC1 (centres unmarked) [Example 320, 1-(2-chloro-phenyl)-5-{4-[4-(2-hydroxy-2-methyl-propionyl)-piperazin-1-yl]-phenyl}-3-(di-(trifluoromethyl)-hydroxy-methyl]-4,5-dihydro-1H-pyrazole]
13 | 94 fold | 136 nM | CS(=O)(=O)c1ccc(-c2ccc(C3CC(C(O)(C(F)(F)F)C(F)(F)F)=NN3c3ccccc3Cl)cc2)cn1 (centres unmarked) [Example 335, 1-(2-chloro-phenyl)-5-[4-(6-methanesulfonyl-pyridin-3-yl)-phenyl]-3-[di-(trifluoromethyl)-hydroxy-methyl]-4,5-dihydro-1H-pyrazole]
14 | 125 fold | 193 nM | CSc1cccc(-c2ccc(C3CC(C(O)(C(F)(F)F)C(F)(F)F)=NN3c3ccccc3Cl)s2)c1 (centres unmarked) [Example 414, 1-(2-chloro-phenyl)-5-{5-[3-(methylsulfanyl)-phenyl]-thiophen-2-yl}-3-[di-(trifluoromethyl)-hydroxy-methyl]-4,5-dihydro-1H-pyrazole]
15 | 72 fold | 580 nM | CC(=O)c1ccc(-c2ccc(C3CC(C(O)(C(F)(F)F)C(F)(F)F)=NN3c3ccccc3Cl)cc2F)cc1 (centres unmarked) [Example 362, 5-(4′-acetyl-2-fluoro-biphenyl-4-yl)-1-(2-chloro-phenyl)-3-[di-(trifluoromethyl)-hydroxy-methyl]-4,5-dihydro-1H-pyrazole]
16 | 83 fold | 145 nM | CN(C)S(=O)(=O)c1ccc(-c2ccc(C3CC(C(O)(C(F)(F)F)C(F)(F)F)=NN3c3ccc(F)cc3F)cc2)cc1 (centres unmarked) [Example 396, 1-(2,4-difluoro-phenyl)-5-(4′-dimethylsulfamoyl-biphenyl-4-yl)-3-(di-(trifluoromethyl)-hydroxy-methyl)-4,5-dihydro-1H-pyrazole]
17 | 11 fold | 20100 nM | CC(C)(C)OC(=O)N1CC=C(c2cccc(C3CC(C(F)(F)C(F)(F)F)=NN3c3ccc(F)cc3F)c2)CC1 (centres unmarked) [Example 60, 5-[3-(1-BOC-1,2,3,6-tetrahydropyridin-4-yl)-phenyl]-1-(2,4-difluoro-phenyl)-3-pentafluoroethyl-4,5-dihydro-1H-pyrazole]
18 | 13 fold | 932 nM | CS(=O)(=O)N1CC=C(c2cccc(N3N=C(C(O)(C(F)(F)F)C(F)(F)F)CC3c3ccccc3Cl)c2)CC1 (centres unmarked) [Example 437, 5-(2-chloro-phenyl)-1-[3-(1-methylsulfonyl-1,2,3,6-tetrahydropyridin-4-yl)-phenyl]-3-[di-(trifluoromethyl)-hydroxy-methyl]-4,5-dihydro-1H-pyrazole]
19 | 66 fold | 1790 nM | OC(C1=NN(c2ccccc2Cl)C(c2ccc(-c3cnc(Cl)nc3)cc2)C1)(C(F)(F)F)C(F)(F)F (centres unmarked) [Example 281, 1-(2-chloro-phenyl)-5-[4-(2-chloro-pyrimidin-5-yl)-phenyl]-3-[di-(trifluoromethyl)-hydroxy-methyl]-4,5-dihydro-1H-pyrazole]
20 | 25 fold | 4470 nM | CN(CCO)S(=O)(=O)c1cccc(-c2cccc(N3N=C(C(F)(F)C(F)(F)F)CC3c3ccc(F)cc3F)c2)c1 (centres unmarked) [Example 210, 5-(2,4-difluoro-phenyl)-1-{3′-[(2-hydroxy-ethyl)-methyl-sulfamoyl]-biphenyl-3-yl}-3-pentafluoroethyl-4,5-dihydro-1H-pyrazole]
21 | 75 fold | 192 nM | CS(=O)(=O)c1cc(F)c(-c2cccc(C3CC(C(F)(F)C(F)(F)F)=NN3c3ccc(F)cc3F)c2)cc1F (centres unmarked) [Example 68, 5-(2′,5′-difluoro-4′-methanesulfonyl-biphenyl-3-yl)-1-(2,4-difluoro-phenyl)-3-pentafluoroethyl-4,5-dihydro-1H-pyrazole]
22 | 44 fold | 1460 nM | OCc1ccc(-c2cccc(C3CC(C(F)(F)C(F)(F)F)=NN3c3ccc(F)cc3F)c2)nc1 (centres unmarked) [Example 91, 1-(2,4-difluoro-phenyl)-5-[3-(5-hydroxymethyl-pyridin-2-yl)-phenyl]-3-pentafluoroethyl-4,5-dihydro-1H-pyrazole]
23 | 45 fold | 1150 nM | COC(=O)c1cncc(-c2ccc(C3CC(C(O)(C(F)(F)F)C(F)(F)F)=NN3c3ccccc3Cl)cc2)c1 (centres unmarked) [Example 273, 1-(2-chloro-phenyl)-5-[4-(5-methoxycarbonyl-pyridin-3-yl)-phenyl]-3-[di-(trifluoromethyl)-hydroxy-methyl]-4,5-dihydro-1H-pyrazole]
24 | 29 fold | 161 nM | CS(=O)(=O)c1ccc(-c2ccc(C3CC(C(O)(C(F)(F)F)C(F)(F)F)=NN3c3ccccc3Cl)cc2)cc1C#N (centres unmarked) [Example 290, 1-(2-chloro-phenyl)-5-[3′-cyano-4′-(methylsulfonyl)-biphenyl-4-yl]-3-[di-(trifluoromethyl)-hydroxy-methyl]-4,5-dihydro-1H-pyrazole]
25 | 27 fold | 47 nM | CS(=O)(=O)c1ccc(-c2ccc(C3CC(C(O)(C(F)(F)F)C(F)(F)F)=NN3c3ccc(F)cc3F)cc2)cc1F (centres unmarked) [Example 387, 1-(2,4-difluoro-phenyl)-5-(3′-fluoro-4′-methanesulfonyl-biphenyl-4-yl)-3-[di-(trifluoromethyl)-hydroxy-methyl]-4,5-dihydro-1H-pyrazole]

— patent US9376420B2 (YUHAN CORPORATION, priority 2012, dated 2016)
